Experimental data taken from publication PMC13081163, “Discovery of a novel Nrf2 activator that modulates mitochondrial function in neurons by regulating DHRS3-Nrf2 interaction after ischemic stroke” (Theranostics, 2026).
Read-outs that look alike come from different tables or passages of the source.

Tests used:
[1] = cited from earlier work
SH-SY5Y cells [2] = assay: Protection against OGD/R damage in SH-SY5Y cells (CCK-8); format: cell-based, human
Protocol: To mimic ischemic conditions in vitro, cells were washed with PBS and then cultured for 2.5 h at 37 °C in glucose-free medium under anaerobic conditions (5% hydrogen, 90% nitrogen, and 5% carbon dioxide). OGD process was terminated by transferring cells back to normal glucose-containing medium under normoxic conditions (5% CO₂, 37 °C) and maintained for 24 h.
In the administration group, cells were exposed for 12 h with Cpd.51 prior to OGD. OGD lasted for 2.5 h and the reperfusion lasted for 24 h before the experiment was concluded. Subsequently, cell viability was determined using the cell counting kit-8 (CCK-8, C0039, Beyotime, China). In the experiment to explore the treatment time window, the only difference was the timing of the Cpd.51 treatment, while all other procedures remained unchanged.
Hek-293T cells were transiently transfected, using Lipofectamine™ 3000 and P3000™ reagent (L3000075, Invitrogen, USA) according to the manufacturer's instructions, with the wild-type, point-mutant and double-mutations constructs of Keap1, DHRS3 or Nrf2 (each at 0.5 ng/μL), respectively. Similarly, to promote the expression of the DHRS3 gene, a DHRS3 expression plasmids (0.5 ng/μL) was transfected as well as the corresponding negative controls into SH-SY5Y cells for 6 h, and further cultured with fresh medium for 18 h according to the manufacturer's instructions.

[3] = Acute (7-day i.v.) toxicity in rats; format: in vivo, rat; conditions: 10 mg/kg i.v. daily for 7 days
Protocol: Cpd.51 was dissolved in solvent (10% DMSO, 10% Solutol HS-15 and 80% saline). It was injected (i.v.) at dose of 3 mg/kg or 5 mg/kg in a 0.5 mL volume. The Sham group and Vehicle group were treated simultaneously with an equal volume of solvent. In the experiment to explore the treatment time window, we merely administered the drug to the rats at different time points, while all other procedures remained unchanged. In the short-term toxicity study, 10 mg/kg Cpd.51 and Oma were administered via tail vein injection at 0.5 mL daily for 7 consecutive days.
Glutamic-pyruvic transaminase (GPT) kits (ml092635, mlbio, China), glutamic oxaloacetic transaminase (GOT) kits (ml092714, mlbio, China), creatinine (CRE) kits (M12C4L, mlbio, China) and blood urea nitrogen (BUN) kits (ml076479, China) were used to detect the serum of rats in order to evaluate liver and kidney functions. Male and female rats were randomly divided into Sham group, Cpd.51 group and Oma group. Doses were administered once daily at 10 mg/kg and body weights were recorded accordingly. Sham groups were given the same volume of solvent. After 7 days, the […] were sacrificed, serum was collected and tested according to the instructions.

[4] = parameters: method as in PMID 40455368; conditions: 28-day, oral 10 mg/kg, rats; cited from earlier work
[5] = 28-day long-term toxicity in rats (intragastric); format: in vivo, rat; conditions: 28 days intragastric
Protocol: During the long-term toxicity test, rats in each group received daily intragastric administration for 28 consecutive days. Animals in the Sham group were administered a mixture of 99% sesame oil and 1% DMSO at a volume of 0.5 mL per rat. Rats in the remaining groups were intragastrically administered varying doses of the respective therapeutic agents.
During the 28-day long-term toxicity study, rats were euthanized following the completion of continuous intragastric administration. Livers and kidneys from both male and female rats in each group were photographed for macroscopic examination, and serum samples were collected for subsequent kit-based analysis. The liver/kidney index was obtained by dividing the weight of the liver/kidney by the body weight.

[6] = parameters: method as in PMID 37155124; conditions: clinical; cited from earlier work
[7] = test system: ARE-luciferase reporter (Nrf2 activation), Hek-293T cells; assay: ARE-luciferase reporter gene assay; format: cell-based; conditions: Homo sapiens; Hek-293T cells, 12 h after drug treatment
Protocol: The Hek-293T cells were cultured in 96-well plates 24 h before transfection with ARE-luciferase reporter plasmid (11548ES03, Yeasen, China) for 48 h according to the manufacturer's instructions. The Firefly luciferase activities was carried out 12 h after the drug treatment, as described by the manufacturer (11412ES81, Yeasen, China).

[8] = target: T1, Human recombinant Keap1 proteins (Homo sapiens, UniProt Q14145); assay: SPR binding to full-length Keap1; parameters: purchased Sinobiological ME18DE0203; conditions: read-out: KD of Oma (Keap1)
Protocol: The binding affinity of Cpd.51 or Oma to Keap1 proteins were measured using a Biacore T200. The overall experimental procedures were based on previous reports, [28]. Human recombinant Keap1 proteins or truncated form of Keap1 (residues 48-180 and residues 48-149) were captured on a CM5 chip by a standard amine coupling procedure. Binding sensorgrams were recorded by injecting various concentrations of Cpd.51 over the immobilized proteins surface. The dissociation constant was obtained by globally fitting the data (to the 1:1 Langmuir binding model using the Biacore Insight evaluation software (Cytiva, Marlborough, MA, USA). Affinity tests for Cpd.51 and DHRS3 were also performed using the aforementioned method.

SH-SY5Y cells [9] = assay: Cytotoxicity in SH-SY5Y cells, 24 h incubation; format: cell-based; conditions: Homo sapiens
tMCAO rats = assay: Long-term recovery after tMCAO (survival, body weight, behaviour); format: in vivo, rat; conditions: 5 mg/kg tail vein injection for 7 d
Protocol: To assess the degree of neurological impairment, we conducted modified Neurological Severity Score (mNSS) according to previous experience. The investigator was blinded to the grouping situation during the whole experiment.
On postoperative day 3 two wooden boards of identical size were joined at a 30° angle, with a narrow gap retained at the junction. The rat was positioned facing the apex of the angle. When it advanced into the deeper part of the angle, bilateral whisker contact with the boards triggered a characteristic rearing response, followed by a turn to face the opposite direction. Each rat underwent 15 trials, and the number of right turns was recorded. The higher the right-turn ratio, the more severe the injury.
Rats were placed on a horizontal, stainless steel wire grid. The grid was then smoothly rotated 180 degrees to an inverted position and held stationary at a height of 0.8 m. A stopwatch was started immediately upon inversion to measure the latency to fall. The test was terminated if the animal remained on the grid for 60 s, at which point it was gently returned to its home cage, and a score of 60 s was recorded.
The Y-maze apparatus consisted of three symmetrically arranged enclosed arms (typically labeled Arms A, B, and C), each positioned 120° apart. At the start of each trial, the subject was placed in Arm A and allowed to move freely through the maze for 8 min. Spatial working memory was evaluated by calculating the spontaneous alternation rate, using the following formula:
Following a 2 h acclimation period, the rats were within an open field cubic box (100 × 100 × 40 cm^3) and allowed 5 min of unrestricted movement. The travel distance and the time spent in the central area were recorded.
The spatial learning and memory of rats were assessed using the Morris water maze (MWM) from post-operative days 23 to 26. Over four consecutive days, animals underwent training trials in which they were required to locate a submerged escape platform within 60 s. Each rat was gently placed into the water facing the pool wall. If the rat found the platform and remained on it for 10 s, the escape latency was recorded. If the platform was not found within 60 s, the rat was guided onto it and allowed to stay for 10 s, and the latency was recorded as 60 s. Following the training phase, the platform was removed, and a visual spatial memory test lasting for 60 s was conducted to assess the retention of memory. The number of platform-location crossings and the time spent in the target quadrant were recorded and analyzed.

[10] = target: T1, Human recombinant Keap1 proteins; conditions: cited from earlier work
[11] = Oma 10 mg/kg, Cpd.51 1, 3 and 10 mg/kg

T1 sequence (Q14145 whole entry, the tested form may be a part): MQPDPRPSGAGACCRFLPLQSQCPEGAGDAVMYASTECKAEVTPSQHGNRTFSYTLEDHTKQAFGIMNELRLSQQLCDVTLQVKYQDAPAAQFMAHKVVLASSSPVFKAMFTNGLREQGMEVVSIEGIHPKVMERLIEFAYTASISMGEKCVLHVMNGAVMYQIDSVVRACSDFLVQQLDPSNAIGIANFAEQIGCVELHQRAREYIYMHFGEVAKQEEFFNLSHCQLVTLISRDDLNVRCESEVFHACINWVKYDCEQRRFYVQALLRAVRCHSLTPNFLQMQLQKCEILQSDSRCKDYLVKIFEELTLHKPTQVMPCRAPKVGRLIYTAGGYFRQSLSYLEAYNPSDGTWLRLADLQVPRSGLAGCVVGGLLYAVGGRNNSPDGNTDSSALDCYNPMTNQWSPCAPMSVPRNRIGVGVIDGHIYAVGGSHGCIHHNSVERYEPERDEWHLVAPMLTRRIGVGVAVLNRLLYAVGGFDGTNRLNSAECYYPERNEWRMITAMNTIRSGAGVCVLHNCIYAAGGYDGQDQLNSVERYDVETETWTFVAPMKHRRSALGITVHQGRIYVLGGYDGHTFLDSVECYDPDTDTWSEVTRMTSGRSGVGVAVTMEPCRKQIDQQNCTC
Sequence of Nrf2 (Q16236 whole entry): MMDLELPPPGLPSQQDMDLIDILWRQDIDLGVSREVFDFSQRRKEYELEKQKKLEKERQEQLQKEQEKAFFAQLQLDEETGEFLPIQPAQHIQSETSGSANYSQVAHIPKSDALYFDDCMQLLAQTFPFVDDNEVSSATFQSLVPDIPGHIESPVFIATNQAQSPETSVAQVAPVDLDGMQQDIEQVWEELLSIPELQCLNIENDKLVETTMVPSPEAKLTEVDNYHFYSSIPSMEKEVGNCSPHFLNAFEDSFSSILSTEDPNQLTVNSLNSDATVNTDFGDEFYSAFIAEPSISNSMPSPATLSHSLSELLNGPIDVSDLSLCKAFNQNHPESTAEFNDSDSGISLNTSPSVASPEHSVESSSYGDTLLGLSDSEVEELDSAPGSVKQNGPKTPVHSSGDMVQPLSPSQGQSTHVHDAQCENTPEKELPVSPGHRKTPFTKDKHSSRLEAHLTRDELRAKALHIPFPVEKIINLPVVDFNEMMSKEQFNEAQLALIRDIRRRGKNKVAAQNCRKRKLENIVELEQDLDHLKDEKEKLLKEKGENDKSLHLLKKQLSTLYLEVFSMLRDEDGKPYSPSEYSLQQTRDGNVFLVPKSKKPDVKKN

| Kd [8] | Molecule | patients developing liver injury during clinical trials [1] | OGD/R damage when administered at different time points (SH-SY5Y cells [2]; 100 nM, CCK-8) | EC50 (SH-SY5Y cells [2]; Homo sapiens, SH-SY5Y, read-out: EC50 against OGD/R damage) | liver hypertrophy, serum GPT and GOT [3] | serum CRE and BUN [3] | weight gain [3] | hepatotoxicity (liver weight, plasma ALT) [4] | liver and kidney indices ([5]; 10 mg/kg, female and male rats) | body weight [5, 11] | plasma markers of hepatic and renal injury [5, 11] | apparent volume of distribution (Vd) [6] | terminal half-life (T1/2) [6] | EC50 [7] | IC50 (SH-SY5Y cells [9]) | body weight and mNSS scores, long-term (tMCAO rats) | corner, inverted screen, Y maze and open field tests (tMCAO rats; vs model group) | Kd [10] |
| --- | --- | --- | --- | --- | --- | --- | --- | --- | --- | --- | --- | --- | --- | --- | --- | --- | --- | --- |
| 21.7 nM | CC1(C)CC[C@]2(NC(=O)C(C)(F)F)CC[C@]3(C)[C@H](C(=O)C=C4[C@@]5(C)C=C(C#N)C(=O)C(C)(C)[C@@H]5CC[C@]43C)[C@@H]2C1 [Oma, Omaveloxolone, reference compound] | ~ 37% | consistently alleviated OGD/R damage | 80.8 nM | marked liver hypertrophy and elevated serum levels of glutamic-pyruvic transaminase (GPT) and glutamic oxaloacetic transaminase (GOT) | increased serum creatinine (CRE) and blood urea nitrogen (BUN) levels | suppressed weight gain | induced hepatotoxicity | markedly increased the liver and kidney indices | neither compound significantly affected body weight | significantly elevated plasma markers of hepatic and renal injury | ~105 L/kg | ~57 h | 104 nM | 758 nM | significantly improved body weight and mNSS scores | exhibited improvements in neurological deficits, motor abilities, and spatial working and reference memory |  |
|  | Nrf2 (from UniProt Q16236) |  |  |  |  |  |  |  |  |  |  |  |  |  |  |  |  | 19 nM |
